Reference: ChEMBL document CHEMBL3588848, “Dihydropyrrolopyrazol-6-one MCHR1 antagonists for the treatment of obesity: Insights on in vivo efficacy from a novel FLIPR assay setup” (Bioorg Med Chem Lett, 2015)

How the values were obtained:
[1] = Fraction unbound in Sprague-Dawley rat plasma at 15 mg/kg, po qd; format: ADME, organism-based
[2] = Displacement of [Phe13, [125I]Tyr19]-MCH from human MCHR1 E4Q/A5T double mutant expressed in HEK293 cell membranes after 90 mins by scintillation counting analysis
[3] = Drug uptake in Sprague-Dawley rat brain at 15 mg/kg, po qd measured at 20 hrs post dose; format: ADME, organism-based; conditions: read-out: Drug uptake
[4] = Lipophilicity, log P of the compound by HPLC analysis; format: physicochemical
[5] = Plasma concentration in Sprague-Dawley rat at 15 mg/kg, po qd measured at 20 hrs post dose; format: ADME, organism-based
[6] = tested on: Rattus norvegicus; assay: Antiobesity activity in Sprague-Dawley rat assessed as body weight loss at 15 mg/kg, po qd administered 1 hr prior to onset of dark cycle measured for 7 days relative to vehicle-treated control; format: functional
[7] = tested on: Plasma; assay: Fraction unbound in Sprague-Dawley rat plasma assessed as 2-(4-chlorophenyl)-5-(4-(2-hydroxy-2-methylpropoxy)-3-methoxyphenyl)-4,5-dihydropyrrolo[3,4-c]pyrazol-6(2H)-one at 30 mg/kg, po qd; format: ADME, organism-based; conditions: in vivo
[8] = tested on: Rattus norvegicus; assay: Antiobesity activity in Sprague-Dawley rat assessed as 2-(4-chlorophenyl)-5-(4-(2-hydroxy-2-methylpropoxy)-3-methoxyphenyl)-4,5-dihydropyrrolo[3,4-c]pyrazol-6(2H)-one-mediated body weight loss at 30 mg/kg, po qd administered 1 hr prior to onset of dark cycle measured for 4 days relative to vehicle-treated control; format: functional
[9] = tested on: Brain; assay: Drug uptake in Sprague-Dawley rat brain assessed as 2-(4-chlorophenyl)-5-(4-(2-hydroxy-2-methylpropoxy)-3-methoxyphenyl)-4,5-dihydropyrrolo[3,4-c]pyrazol-6(2H)-one at 30 mg/kg, po qd measured at 20 hrs post dose; format: ADME, organism-based; conditions: in vivo, read-out: Drug uptake
[10] = biological target: T1, Melanin-concentrating hormone receptor 1 (Rattus norvegicus, UniProt P97639); assay: Antagonist activity at rat MCHR1 assessed as 2-(4-chlorophenyl)-5-(4-(2-hydroxy-2-methylpropoxy)-3-methoxyphenyl)-4,5-dihydropyrrolo[3,4-c]pyrazol-6(2H)-one
T1 sequence (P97639 whole entry): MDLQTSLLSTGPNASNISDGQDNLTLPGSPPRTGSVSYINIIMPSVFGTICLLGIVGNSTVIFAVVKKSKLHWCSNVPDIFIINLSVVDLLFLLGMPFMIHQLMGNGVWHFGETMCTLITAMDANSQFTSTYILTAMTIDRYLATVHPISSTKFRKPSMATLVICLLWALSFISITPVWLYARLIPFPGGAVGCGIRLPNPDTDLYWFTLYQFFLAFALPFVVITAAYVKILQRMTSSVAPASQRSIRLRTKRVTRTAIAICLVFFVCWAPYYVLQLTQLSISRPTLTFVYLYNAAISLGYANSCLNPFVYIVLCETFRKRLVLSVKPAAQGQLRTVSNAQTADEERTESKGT

[11] = tested on: Plasma; assay: Plasma concentration in Sprague-Dawley rat assessed as 2-(4-chlorophenyl)-5-(4-(2-hydroxy-2-methylpropoxy)-3-methoxyphenyl)-4,5-dihydropyrrolo[3,4-c]pyrazol-6(2H)-one at 30 mg/kg, po qd measured at 20 hrs post dose; format: ADME, organism-based; conditions: in vivo
[12] = biological target: Melanin-concentrating hormone receptor 1 (Homo sapiens, UniProt Q99705); assay: Antagonist activity at human MCHR1 expressed in HEK293 cells assessed as inhibition of MCH-stimulated Ca2+ influx preincubated for 120 mins followed by MCH challenge by FLIPR assay; format: functional, cell-based
Chain of Melanin-concentrating hormone receptor 1 (Homo sapiens, UniProt Q99705) (Q99705 whole entry): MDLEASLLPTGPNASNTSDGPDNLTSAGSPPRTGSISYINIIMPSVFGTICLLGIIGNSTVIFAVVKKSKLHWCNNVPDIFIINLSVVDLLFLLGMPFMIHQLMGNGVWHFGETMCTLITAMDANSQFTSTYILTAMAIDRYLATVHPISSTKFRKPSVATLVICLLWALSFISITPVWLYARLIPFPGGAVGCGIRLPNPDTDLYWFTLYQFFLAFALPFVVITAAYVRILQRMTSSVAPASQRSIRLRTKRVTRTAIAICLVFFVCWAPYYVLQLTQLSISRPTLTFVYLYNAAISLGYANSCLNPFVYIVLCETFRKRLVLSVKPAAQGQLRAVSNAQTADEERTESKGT

[13] = biological target: T2, hERG (KCNH2) (Homo sapiens, UniProt Q12809); assay: Inhibition of human ERG expressed in CHO cells at 0.3 uM by automated whole-cell patch clamp electrophysiology system relative to control; format: cell-based; conditions: CHO cells expressing human ERG
T2 sequence (Q12809 whole entry): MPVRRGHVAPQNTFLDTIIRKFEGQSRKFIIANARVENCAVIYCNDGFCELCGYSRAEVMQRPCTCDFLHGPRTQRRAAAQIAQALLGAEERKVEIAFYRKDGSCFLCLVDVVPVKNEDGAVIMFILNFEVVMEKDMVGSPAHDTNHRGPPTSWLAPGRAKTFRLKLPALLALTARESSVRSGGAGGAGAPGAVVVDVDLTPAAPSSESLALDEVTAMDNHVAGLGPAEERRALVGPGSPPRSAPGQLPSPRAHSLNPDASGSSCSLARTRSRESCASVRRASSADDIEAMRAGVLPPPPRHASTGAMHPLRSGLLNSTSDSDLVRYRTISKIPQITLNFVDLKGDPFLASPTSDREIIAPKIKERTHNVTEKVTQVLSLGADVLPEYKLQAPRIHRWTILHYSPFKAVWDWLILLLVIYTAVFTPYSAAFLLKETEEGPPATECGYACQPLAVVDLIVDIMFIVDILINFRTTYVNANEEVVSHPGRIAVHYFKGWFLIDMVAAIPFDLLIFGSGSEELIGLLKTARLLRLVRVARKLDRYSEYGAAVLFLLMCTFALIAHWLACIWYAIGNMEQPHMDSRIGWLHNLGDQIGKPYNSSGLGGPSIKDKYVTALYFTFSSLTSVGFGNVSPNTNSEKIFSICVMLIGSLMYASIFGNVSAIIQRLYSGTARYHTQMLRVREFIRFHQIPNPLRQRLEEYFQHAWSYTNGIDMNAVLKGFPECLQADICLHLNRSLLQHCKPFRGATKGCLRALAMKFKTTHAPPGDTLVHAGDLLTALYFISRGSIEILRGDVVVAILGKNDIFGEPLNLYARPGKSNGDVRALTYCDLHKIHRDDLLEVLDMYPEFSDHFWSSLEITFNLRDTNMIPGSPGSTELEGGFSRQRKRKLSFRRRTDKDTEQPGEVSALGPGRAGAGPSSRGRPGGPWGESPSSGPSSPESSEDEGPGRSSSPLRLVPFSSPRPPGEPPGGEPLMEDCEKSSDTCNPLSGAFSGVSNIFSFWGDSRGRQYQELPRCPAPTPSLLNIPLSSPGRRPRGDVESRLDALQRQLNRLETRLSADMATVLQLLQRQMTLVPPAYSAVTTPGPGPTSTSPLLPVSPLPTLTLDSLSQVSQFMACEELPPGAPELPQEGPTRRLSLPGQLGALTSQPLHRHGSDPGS

[14] = Plasma concentration in Sprague-Dawley rat at 10 mg/kg, po qd measured at 20 hrs post dose; format: ADME, organism-based
[15] = Drug uptake in Sprague-Dawley rat brain at 3 mg/kg, po qd measured at 20 hrs post dose; format: ADME, organism-based; conditions: read-out: Drug uptake
[16] = tested on: Brain; assay: Drug uptake in Sprague-Dawley rat brain at 1 mg/kg, po qd measured at 20 hrs post dose; format: ADME, organism-based; conditions: in vivo, BLD = below limit of detection
[17] = tested on: Rattus norvegicus; assay: Antiobesity activity in Sprague-Dawley rat assessed as body weight loss at 3 mg/kg, po qd administered 1 hr prior to onset of dark cycle measured for 7 days relative to vehicle-treated control; format: functional
[18] = Fraction unbound in Sprague-Dawley rat plasma at 10 mg/kg, po qd; format: ADME, organism-based
[19] = Plasma concentration in Sprague-Dawley rat at 1 mg/kg, po qd measured at 20 hrs post dose; format: ADME, organism-based
[20] = Ratio of unbound concentration in Sprague-Dawley rat brain at 3 mg/kg, po qd to Ki for rat MCHR1; format: ADME, organism-based; conditions: in vivo
[21] = biological target: T2, hERG (KCNH2); assay: Inhibition of human ERG expressed in CHO cells at 1 uM by automated whole-cell patch clamp electrophysiology system relative to control; format: cell-based; conditions: CHO cells expressing human ERG
[22] = biological target: T1, Melanin-concentrating hormone receptor 1; assay: Antagonist activity at rat MCHR1
[23] = Fraction unbound in Sprague-Dawley rat plasma at 3 mg/kg, po qd; format: ADME, organism-based
[24] = Fraction unbound in Sprague-Dawley rat plasma at 1 mg/kg, po qd; format: ADME, organism-based
[25] = tested on: Rattus norvegicus; assay: Antiobesity activity in Sprague-Dawley rat assessed as body weight loss at 1 mg/kg, po qd administered 1 hr prior to onset of dark cycle measured for 7 days relative to vehicle-treated control; format: functional
[26] = Plasma concentration in Sprague-Dawley rat at 3 mg/kg, po qd measured at 20 hrs post dose; format: ADME, organism-based
[27] = tested on: Rattus norvegicus; assay: Antiobesity activity in Sprague-Dawley rat assessed as body weight loss at 10 mg/kg, po qd administered 1 hr prior to onset of dark cycle measured for 7 days relative to vehicle-treated control; format: functional
[28] = Ratio of unbound concentration in Sprague-Dawley rat brain at 10 mg/kg, po qd to Ki for rat MCHR1; format: ADME, organism-based; conditions: in vivo
[29] = Drug uptake in Sprague-Dawley rat brain at 10 mg/kg, po qd measured at 20 hrs post dose; format: ADME, organism-based; conditions: read-out: Drug uptake
[30] = biological target: Voltage-gated inwardly rectifying potassium channel KCNH2 (Homo sapiens, UniProt Q12809); assay: Inhibition of human ERG expressed in CHO cells by automated whole-cell patch clamp electrophysiology system; format: cell-based
Chain of Voltage-gated inwardly rectifying potassium channel KCNH2 (Q12809 whole entry): as above

[31] = biological target: T1, Melanin-concentrating hormone receptor 1; assay: Antagonist activity at rat MCHR1 assessed as 6-(4-chlorophenyl)-3-(4-(2-hydroxy-2-methylpropoxy)-3-methoxyphenyl)thieno[3,2-d]pyrimidin-4(3H)-one
[32] = tested on: Brain; assay: Drug uptake in Sprague-Dawley rat brain assessed as 6-(4-chlorophenyl)-3-(4-(2-hydroxy-2-methylpropoxy)-3-methoxyphenyl)thieno[3,2-d]pyrimidin-4(3H)-one at 10 mg/kg, po qd measured at 20 hrs post dose; format: ADME, organism-based; conditions: in vivo
[33] = tested on: Rattus norvegicus; assay: Antiobesity activity in Sprague-Dawley rat assessed as 6-(4-chlorophenyl)-3-(4-(2-hydroxy-2-methylpropoxy)-3-methoxyphenyl)thieno[3,2-d]pyrimidin-4(3H)-one-mediated body weight loss at 10 mg/kg, po qd administered 1 hr prior to onset of dark cycle measured for 7 days relative to vehicle-treated control; format: functional
[34] = tested on: Plasma; assay: Fraction unbound in Sprague-Dawley rat plasma assessed as 6-(4-chlorophenyl)-3-(4-(2-hydroxy-2-methylpropoxy)-3-methoxyphenyl)thieno[3,2-d]pyrimidin-4(3H)-one at 10 mg/kg, po qd; format: ADME, organism-based; conditions: in vivo
[35] = tested on: Plasma; assay: Plasma concentration in Sprague-Dawley rat assessed as 6-(4-chlorophenyl)-3-(4-(2-hydroxy-2-methylpropoxy)-3-methoxyphenyl)thieno[3,2-d]pyrimidin-4(3H)-one at 10 mg/kg, po qd measured at 20 hrs post dose; format: ADME, organism-based; conditions: in vivo
[36] = Ratio of drug level in brain to plasma in Sprague-Dawley rat assessed as 6-(4-chlorophenyl)-3-(4-(2-hydroxy-2-methylpropoxy)-3-methoxyphenyl)thieno[3,2-d]pyrimidin-4(3H)-one at 10 mg/kg, po qd measured at 20 hrs post dose
[37] = Ratio of unbound concentration in Sprague-Dawley rat brain assessed as 6-(4-chlorophenyl)-3-(4-(2-hydroxy-2-methylpropoxy)-3-methoxyphenyl)thieno[3,2-d]pyrimidin-4(3H)-one at 10 mg/kg, po qd to Ki for rat MCHR1 assessed as 6-(4-chlorophenyl)-3-(4-(2-hydroxy-2-methylpropoxy)-3-methoxyphenyl)thieno[3,2-d]pyrimidin-4(3H)-one; format: ADME, organism-based; conditions: in vivo

## COc1cc(-n2cnc3cc(-c4ccc(Cl)cc4)sc3c2=O)ccc1OCCN1CCCC1
[1]
  fraction unbound: 0.012
[2]
  Ki: 1 nM
[3]
  concentration at 20 h: 0.654 µM
[4]
  logP: 3.5
[5]
  concentration at 20 h: 0.378 µM
[6]
  Activity: 8.7%

## COc1cc(N2Cc3cn(-c4ccc(Cl)cc4)nc3C2=O)ccc1OCC(C)(C)OC(=O)CN
[7]
  Fu: 1%
[8]
  Activity: 1.8%
[9]
  concentration: 1.06 µM
[10]
  Ki: 3.8 nM
[11]
  concentration: 2.56 µM

## COc1cc(N2Cc3cn(-c4ccc(Cl)cc4)nc3C2=O)ccc1OCC(C)O (configuration not stated)
[2]
  Ki: 13 nM

## COc1cc(N2Cc3cn(-c4ccc(Cl)cc4)nc3C2=O)ccc1OCC(C)(C)O
[2]
  Ki: 8 nM
[12]
  IC50: 1170 nM

## COc1cc(N2Cc3cn(-c4ccc(Cl)cc4)nc3C2=O)ccc1OC[C@H](O)C1CC1
[2]
  Ki: 9 nM

## COc1cc(N2Cc3cn(-c4ccc(Cl)cn4)nc3C2=O)ccc1OCC(C)(C)O
[2]
  Ki: 44 nM

## COc1cc(N2Cc3cn(-c4ccc(Cl)cc4)nc3C2=O)ccc1OCCN1CCCC1
[2]
  Ki: 0.42 nM
[13]
  inhibition at 0.3 µM: 58%
[12]
  IC50: 3060 nM
[4]
  logP: 2.8

## COc1cc(N2Cc3nn(-c4ccc(Cl)cc4)cc3C2=O)ccc1OCC(C)O (configuration not stated)
[2]
  Ki: 334 nM

## COc1cc(N2Cc3nn(-c4ccc(Cl)cc4)cc3C2=O)ccc1OCC(C)(C)O
[2]
  Ki: 107 nM

## COc1cc(N2Cc3nn(-c4ccc(Cl)cc4)cc3C2=O)ccc1OC[C@H](O)C1CC1
[2]
  Ki: 41 nM

## COc1cc(N2Cc3nn(-c4ccc(Cl)cc4)nc3C2=O)ccc1OCC(C)(C)O
[2]
  Ki: 34 nM

## COc1cc(N2Cc3nn(-c4ccc(Cl)cc4)nc3C2=O)ccc1OCCN1CCCC1
[2]
  Ki: 2.3 nM
[13]
  inhibition at 0.3 µM: 68%
[4]
  logP: 3.3

## CN[C@H]1CCN(c2ccc(N3Cc4cn(-c5ccc(Cl)cc5)nc4C3=O)cn2)C1
[2]
  Ki: 0.96 nM
[14]
  concentration at 20 h: 1.58 µM
[15]
  concentration at 20 h: 0.739 µM
[16]
  Drug uptake: BLD
[17]
  Activity: 3.8%
[18]
  fraction unbound: 0.042
[19]
  concentration at 20 h: 0.131 µM
[20]
  Ratio: 39
[12]
  IC50: 241 nM
[21]
  inhibition at 1 µM: 66%
[22]
  Ki: 0.8 nM
[23]
  fraction unbound: 0.042
[24]
  fraction unbound: 0.042
[25]
  Activity: 2.2%
[26]
  concentration at 20 h: 0.574 µM
[27]
  Activity: 7.5%
[28]
  Ratio: 145
[29]
  concentration at 20 h: 2.77 µM

## CN[C@@H]1CCN(c2ccc(N3Cc4cn(-c5ccc(Cl)cc5)nc4C3=O)cn2)C1
[2]
  Ki: 1.3 nM
[21]
  inhibition at 1 µM: 50%

## CN(C)[C@H]1CCN(c2ccc(N3Cc4cn(-c5ccc(Cl)cc5)nc4C3=O)cn2)C1
[2]
  Ki: 0.7 nM
[21]
  inhibition at 1 µM: 50%

## N[C@H]1CCN(c2ccc(N3Cc4cn(-c5ccc(Cl)cc5)nc4C3=O)cn2)C1
[2]
  Ki: 2.1 nM
[21]
  inhibition at 1 µM: 58%

## CNC1CCN(c2ccc(N3Cc4cn(-c5ccc(Cl)cc5)nc4C3=O)cc2)C1 (configuration not stated)
[2]
  Ki: 0.8 nM
[13]
  inhibition at 0.3 µM: 51%

## CC(=O)N(C)C1CCN(c2ccc(N3Cc4cn(-c5ccc(Cl)cc5)nc4C3=O)cn2)C1 (configuration not stated)
[2]
  Ki: 6.5 nM
[21]
  inhibition at 1 µM: 23%

## CC(C)(C)NC1CCN(c2ccc(N3Cc4cn(-c5ccc(Cl)cc5)nc4C3=O)cn2)C1 (configuration not stated)
[2]
  Ki: 2.7 nM
[21]
  inhibition at 1 µM: 71%

## COc1cc(N2Cc3cn(-c4ccc(Cl)cc4)nc3C2=O)ccc1N1CC[C@@H](O)C1
[2]
  Ki: 7.1 nM
[30]
  IC50: > 80000 nM

## COc1cc(N2Cc3cn(-c4ccc(Cl)cc4)nc3C2=O)ccc1N1C[C@H](O)[C@@H](O)C1
[2]
  Ki: 11 nM
[30]
  IC50: > 30000 nM
[21]
  inhibition at 1 µM: < 5%

## COc1cc(-n2cnc3cc(-c4ccc(Cl)cc4)sc3c2=O)ccc1OCC(C)(C)O
[2]
  Ki: 7.9 nM
[12]
  IC50: 13 nM

## COc1cc(-n2cnc3cc(-c4ccc(Cl)cc4)sc3c2=O)ccc1OCC(C)(C)OC(=O)CN
[31]
  Ki: 7.2 nM
[32]
  Drug uptake: 1610 nM
[33]
  Activity: 8.8%
[34]
  Fu: 0.7%
[35]
  concentration: 0.546 µM
[36]
  BPR: 1.7
[37]
  Ratio: 1.6

## COc1cc(N2Cc3nn(-c4ccc(Cl)cc4)nc3C2=O)ccc1OCC(O)C1CC1 (racemic)
[2]
  Ki: 112 nM
